Measurements published in the supplement of paper PMC11061612.

Columns and labels:
Assay in all cases: Bliss excess, mean over the matrix (fraction); higher = more synergy
[1] = tested on: NCI-H2818 (Mesothelioma)
Outline: (§1)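 Bliss excess equals the observed combination effect minus the expected value EA + EB − EA·EB, where EA and EB are the effects of each agent alone. Combination Emax is the second-highest inhibition within the matrix. Inhibition was scaled from CellTiter-Glo 2.0 luminescence, with 0 set by vehicle wells and 1 by blank wells, after 72 hours of two-drug dosing of cells plated in 1536-well plates.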

[2] = tested on: K-562 (Chronic Myelogenous Leukemia)
Outline: as §1

[3] = tested on: HDQ-P1 (Breast Carcinoma)
Outline: as §1

[4] = tested on: EVSA-T (Breast Carcinoma)
Outline: as §1

[5] = tested on: MOLT-16 (T-Lymphoblastic Leukemia)
Outline: as §1

[6] = tested on: SW837 (Colorectal Carcinoma)
Outline: as §1

[7] = tested on: KARPAS-45 (T-Lymphoblastic Leukemia)
Outline: as §1

[8] = tested on: SU-DHL-8 (B-Cell Non-Hodgkin's Lymphoma)
Outline: as §1

[9] = tested on: BFTC-905 (Bladder Carcinoma)
Outline: as §1

[10] = tested on: P12-ICHIKAWA (T-Lymphoblastic Leukemia)
Outline: as §1

[11] = tested on: ES8 (Ewing's Sarcoma)
Outline: as §1

[12] = tested on: ES1 (Ewing's Sarcoma)
Outline: as §1

[13] = tested on: SR (Other Blood Carcinomas)
Outline: as §1

[14] = tested on: U251 (Low Grade Glioma)
Outline: as §1

[15] = tested on: WM-115 (Melanoma)
Outline: as §1

[16] = tested on: L-540 (Hodgkin's Lymphoma)
Outline: as §1

[17] = tested on: MS751 (Cervical Carcinoma)
Outline: as §1

[18] = tested on: HL-60 (Acute Myeloid Leukemia)
Outline: as §1

[19] = tested on: GR-ST (B-Lymphoblastic Leukemia)
Outline: as §1

[20] = tested on: KCL-22 (Chronic Myelogenous Leukemia)
Outline: as §1

SMILES | Bliss excess [1] | Bliss excess [2] | Bliss excess [3] | Bliss excess [4] | Bliss excess [5] | Bliss excess [6] | Bliss excess [7] | Bliss excess [8] | Bliss excess [9] | Bliss excess [10] | Bliss excess [11] | Bliss excess [12] | Bliss excess [13] | Bliss excess [14] | Bliss excess [15] | Bliss excess [16] | Bliss excess [17] | Bliss excess [18] | Bliss excess [19] | Bliss excess [20]
CC1(C)CCC(CN2CCN(c3ccc(C(=O)NS(=O)(=O)c4ccc(NCC5CCOCC5)c([N+](=O)[O-])c4)c(Oc4cnc5[nH]ccc5c4)c3)CC2)=C(c2ccc(Cl)cc2)C1 [Venetoclax] + C[C@@H](Nc1cc(F)cc(F)c1)c1cc(C(=O)N(C)C)cc2c(=O)cc(N3CCOCC3)oc12 [AZD8186] (first compound max 1 µM, 7x7, partner max 3 µM) | -0.0557 | 0.038 | -0.0215 | 0.0269 | 0.0388 | -0.0419 | 0.201 | -0.041 | -0.0516 | -0.0097 | -0.0777 | -0.0374 | -0.027 | -0.0431 | -0.0112 | 0.027 | 0.006 | 0.0249 | -0.0713 | 0.0129
CC(=O)c1c(C)c2cnc(Nc3ccc(N4CCNCC4)cn3)nc2n(C2CCCC2)c1=O [Palbociclib] + Cc1c2c(nn1C)CSCc1cc(n(C)n1)CSc1cc(c3ccccc3c1)OCCCc1c(C(=O)O)n(C)c3c-2c(Cl)ccc13 [AZD5991] (first compound max 10 µM, 7x7, partner max 1 µM) | -0.0386 | -0.0141 | -0.0396 | -0.117 | -0.0427 | -0.0582 | -0.0071 | -0.22 | -0.0167 | -0.0467 | 0.0838 | -0.0169 | 0.0286 | -0.0479 | -0.0282 | -0.0063 | -0.0294 | -0.0214 | 0.0096 | 0.0403
COc1nnc2ccc(N3CCC(c4ccc(OCCN5CCN(C)C(=O)[C@H]5C)cc4)CC3)nn12 [AZD5153] + CCN(CCO)CCCOc1ccc2c(Nc3cc(CC(=O)Nc4cccc(F)c4)[nH]n3)ncnc2c1 [AZD2811] (first compound max 1 µM, 7x7, partner max 1 µM) | -0.0083 | -0.0153 | -0.008 | 0.0047 | -0.0173 | -0.0663 | -0.0171 | 0.107 | -0.0452 | 0.0024 | -0.0119 | -0.0504 | -0.0672 | 0.0064 | -0.0814 | -0.0477 | 0.0349 | -0.0076 | -0.0238 | 0.0425
CN(CCO)CC[C@H](CSc1ccccc1)Nc1ccc(S(=O)(=O)NC(=O)c2ccc(N3CCC([C@@H](O)c4ccccc4-c4ccc(Cl)cc4)CC3)cc2)cc1S(=O)(=O)C(F)(F)F [AZD4320] + Cc1cc2ncnn2cc1Nc1ncc2c(n1)n(C1CCOCC1)c(=O)n2C [AZD7648] (first compound max 1 µM, 7x7, partner max 10 µM) | -0.0715 | -0.0332 | -0.0085 | -0.0237 | -0.0059 | -0.0273 | 0.042 | -0.0255 | -0.0375 | -0.002 | -0.0594 | -0.0222 | -0.0189 | -0.0405 | -0.0054 | 0.0389 | -0.0353 | 0.0074 | -0.0157 | 0.0444
NC1(C(=O)N[C@@H](CCO)c2ccc(Cl)cc2)CCN(c2ncnc3[nH]ccc23)CC1 [Capivasertib] + CC(C)n1c(=O)n(C)c2cnc3cc(F)c(-c4ccc(OCCCN5CCCCC5)nc4)cc3c21 [AZD1390] (first compound max 10 µM, 7x7, partner max 0.3 µM) | -0.0447 | 0.0077 | -0.0442 | -0.0326 | -0.0658 | -0.0461 | -0.0374 | -0.0156 | -0.0329 | -0.018 | -0.0318 | -0.111 | -0.0452 | -0.0549 | -0.0368 | 0.0167 | 0.0033 | -0.0656 | -0.0449 | -0.0116
Cn1cnc2c(F)c(Nc3ccc(Br)cc3Cl)c(C(=O)NOCCO)cc21 [Selumetinib] + CC(C)n1c(=O)n(C)c2cnc3cc(F)c(-c4ccc(OCCCN5CCCCC5)nc4)cc3c21 [AZD1390] (first compound max 10 µM, 7x7, partner max 0.3 µM) | -0.0237 | -0.0345 | -0.0456 | -0.0185 | 0.0182 | -0.0343 | -0.026 | -0.0201 | -0.0074 | 0.0544 | -0.0529 | -0.0365 | -0.0171 | -0.0361 | -0.0442 | -0.0407 | -0.0171 | -0.073 | -0.0084 | 0.0847
Cn1cnc2c(F)c(Nc3ccc(Br)cc3Cl)c(C(=O)NOCCO)cc21 [Selumetinib] + CCN(CCO)CCCOc1ccc2c(Nc3cc(CC(=O)Nc4cccc(F)c4)[nH]n3)ncnc2c1 [AZD2811] (first compound max 10 µM, 7x7, partner max 1 µM) | -0.0106 | 0.0352 | -0.0538 | 0.0097 | -0.0271 | -0.0311 | -0.0434 | -0.0216 | 0.0253 | 0.0216 | -0.0089 | 0.0048 | 0.0128 | -0.034 | -0.042 | -0.0634 | 0.055 | 0.0017 | 0.0702 | 0.0941
Cc1c2c(nn1C)CSCc1cc(n(C)n1)CSc1cc(c3ccccc3c1)OCCCc1c(C(=O)O)n(C)c3c-2c(Cl)ccc13 [AZD5991] + C[C@@H]1COCCN1C2=NC(=NC(=C2)C3(CC3)[S@](=N)(=O)C)C4=C5C=CNC5=NC=C4 [AZD6738] (first compound max 1 µM, 7x7, partner max 10 µM) | 0.0148 | -0.0091 | 0.0563 | -0.0015 | 0.0043 | 0.0152 | 0.0077 | 0.0814 | 0.0113 | 0.0312 | 0.0029 | 0.0292 | 0.0941 | 0.0572 | 0.0041 | 0.0278 | 0.0565 | -0.0069 | -0.129 | -0.0163
Cc1c2c(nn1C)CSCc1cc(n(C)n1)CSc1cc(c3ccccc3c1)OCCCc1c(C(=O)O)n(C)c3c-2c(Cl)ccc13 [AZD5991] + CN(C)CCCOc1ccc(-c2ccc3ncc4c(c3c2)n(C2CCOCC2)c(=O)n4C)cn1 [AZD0156] (first compound max 1 µM, 7x7, partner max 1 µM) | -0.0052 | 0.0048 | 0.0104 | -0.0304 | -0.0302 | 0.0004 | -0.0403 | -0.0377 | 0.0304 | 0.108 | 0.0224 | 0.0092 | 0.0246 | 0.0334 | -0.0136 | -0.0021 | 0.0099 | 0.006 | -0.112 | 0.0191
CC1(C)CCC(CN2CCN(c3ccc(C(=O)NS(=O)(=O)c4ccc(NCC5CCOCC5)c([N+](=O)[O-])c4)c(Oc4cnc5[nH]ccc5c4)c3)CC2)=C(c2ccc(Cl)cc2)C1 [Venetoclax] + COc1cc(Nc2ncc3c(n2)-c2ccc(Cl)cc2C(c2c(F)cccc2OC)=NC3)ccc1C(=O)O [Alisertib] (first compound max 1 µM, 7x7, partner max 10 µM) | -0.0547 | 0.0498 | -0.0185 | 0.0434 | 0.0623 | -0.0319 | 0.0544 | -0.0869 | -0.0387 | -0.0398 | -0.104 | 0.0385 | 0.013 | 0.0027 | -0.0539 | 0.161 | 0.0342 | 0.0894 | 0.0444 | 0.163
CC1(C)CCC(CN2CCN(c3ccc(C(=O)NS(=O)(=O)c4ccc(NCC5CCOCC5)c([N+](=O)[O-])c4)c(Oc4cnc5[nH]ccc5c4)c3)CC2)=C(c2ccc(Cl)cc2)C1 [Venetoclax] + Cn1cnc2c(F)c(Nc3ccc(Br)cc3Cl)c(C(=O)NOCCO)cc21 [Selumetinib] (first compound max 1 µM, 7x7, partner max 3 µM) | -0.0491 | -0.0074 | -0.0377 | -0.017 | 0.016 | -0.0129 | 0.0372 | -0.0738 | -0.0116 | 0.0233 | -0.0411 | -0.0068 | 0.0026 | -0.0521 | -0.0472 | -0.0159 | 0.0072 | 0.0694 | -0.0318 | -0.0032
Cc1nc(Nc2ncc(C(=O)Nc3c(C)cccc3Cl)s2)cc(N2CCN(CCO)CC2)n1 [Dasatinib] + CC(=O)Nc1cccc(-n2c(=O)n(C3CC3)c(=O)c3c(Nc4ccc(I)cc4F)n(C)c(=O)c(C)c32)c1 [Trametinib] (first compound max 2 µM, 7x7, partner max 1 µM) | -0.0109 | -0.0956 | -0.0033 | -0.0361 | -0.0184 | 0.0448 | 0.0017 | -0.0242 | 0.0926 | 0.0326 | 0.0243 | -0.0643 | -0.0069 | 0.0682 | 0.118 | -0.0484 | -0.0099 | -0.159 | 0.0189 | -0.0501
C=CCn1c(=O)c2cnc(Nc3ccc(N4CCN(C)CC4)cc3)nc2n1-c1cccc(C(C)(C)O)n1 [AZD1775] + C1CN(CCC1(C(=O)N[C@@H](CCO)C2=CC=C(C=C2)Cl)N)C3=NC=NC4=C3C=CN4 [Capivasertib] (first compound max 3 µM, partner max 3 µM) | -0.0493 | -0.0516 | -0.0679 | 0.129 | 0.0568 | -0.0504 | -0.0046 | 0.0097 | -0.0499 | 0.0076 | 0.0352 | -0.0219 | 0.0013 | -0.0223 | -0.116 | -0.0019 | 0.0003 | 0.0265 | -0.0771 | 0.035
NC1(C(=O)N[C@@H](CCO)c2ccc(Cl)cc2)CCN(c2ncnc3[nH]ccc23)CC1 [Capivasertib] + COc1nnc2ccc(N3CCC(c4ccc(OCCN5CCN(C)C(=O)[C@H]5C)cc4)CC3)nn12 [AZD5153] (first compound max 10 µM, 7x7, partner max 1 µM) | 0.0025 | 0.0061 | 0.0651 | -0.033 | 0.0458 | -0.0301 | 0.0133 | 0.0407 | -0.0346 | 0.0553 | 0.0894 | 0.035 | -0.0166 | 0.0284 | 0.0031 | -0.0794 | -0.0065 | 0.0346 | -0.0565 | 0.0441
